Experimental data published in the supplement of paper PMC4862054.

Assays:
Details in all cases: 72 h
MDA-MB-468 [1] = tested on: MDA-MB-468
Procedure: (§1)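 Drug sensitivity and resistance testing (DSRT) of breast cancer cell lines in 384-well plates, 5 concentrations in 10-fold dilutions over a compound-specific 10,000-fold range. After 72 h, cytotoxicity was read by CellTox Green fluorescence and viability by CellTiter-Glo luminescence (multiplexed), normalised to DMSO and benzethonium chloride controls. EC50 is the inflection point of the fitted dose-response curve (bottom asymptote free, so it can be relative for partial curves) and is censored at the highest tested concentration. Rows with DSS 0 (no meaningful response) were excluded.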

CAL-120 [2] = tested on: CAL-120
Procedure: as §1

CAL-51 [3] = tested on: CAL-51
Procedure, shortened: (§2)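 Per-plate normalisation used 0.1 % DMSO and a positive kill control. Breast cancer cell lines (20 µl suspension) were seeded into 384-well plates containing compound at 5 concentrations in 10-fold steps across a compound-specific 10,000-fold range, incubated for 72 h, and read first for CellTox Green fluorescence (485/520 nm), then for CellTiter-Glo luminescence. EC50 was fitted from the dose-response curves and censored at the top concentration.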

MDA-MB-453 [4] = tested on: MDA-MB-453
Procedure: as §1

HDQ-P1 [5] = tested on: HDQ-P1
Procedure: as §1

BT-549 [6] = tested on: BT-549
Procedure: as §1

MDA-MB-231 [7] = tested on: MDA-MB-231
Procedure: as §1

CAL-85-1 [8] = tested on: CAL-85-1
Procedure: as §1

CAL-51 [9] = tested on: CAL-51; remark: listed apart in the source
Procedure: as §1

Hs578T [10] = tested on: Hs578T
Procedure: as §1

MFM-223 [11] = tested on: MFM-223
Procedure: as §1

MCF-10A [12] = tested on: MCF-10A
Procedure: as §1

MDA-MB-453 [13] = tested on: MDA-MB-453; remark: listed apart in the source
Procedure, shortened: as §2

HCC1937 [14] = tested on: HCC1937
Procedure, shortened: as §2

SK-BR-3 [15] = tested on: SK-BR-3
Procedure, shortened: as §2

BT-549 [16] = tested on: BT-549; remark: listed apart in the source
Procedure, shortened: as §2

MDA-MB-436 [17] = tested on: MDA-MB-436
Procedure, shortened: as §2

MDA-MB-231 [18] = tested on: MDA-MB-231; remark: listed apart in the source
Procedure, shortened: as §2

CAL-85-1 [19] = tested on: CAL-85-1; remark: listed apart in the source
Procedure, shortened: as §2

DU-4475 [20] = tested on: DU-4475
Procedure, shortened: as §2

HCC1599 = tested on: HCC1599
Procedure, shortened: as §2

Hs578T [21] = tested on: Hs578T; remark: listed apart in the source
Procedure, shortened: as §2

HCC1143 [22] = tested on: HCC1143
Procedure, shortened: as §2

MFM-223 [23] = tested on: MFM-223; remark: listed apart in the source
Procedure, shortened: as §2

CAL-120 [24] = tested on: CAL-120; remark: listed apart in the source
Procedure, shortened: as §2

MCF-10A [25] = tested on: MCF-10A; remark: listed apart in the source
Procedure, shortened: as §2

HCC1937 [26] = tested on: HCC1937; remark: listed apart in the source
Procedure: as §1

BT-474 [27] = tested on: BT-474
Procedure: as §1

HCC1143 [28] = tested on: HCC1143; remark: listed apart in the source
Procedure: as §1

HCC1937 [29] = tested on: HCC1937; remark: listed apart in the source
Procedure, shortened: (§3)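 To measure viability, fluorescence at 560/590 nm was read after 2.5 µl CellTiter-Blue had been added for 2 h at 37 °C. Cells from breast cancer lines had been seeded in 20 µl suspension onto 384-well plates pre-loaded with compound dissolved in 5 µl medium and kept for 72 h. EC50 comes from a fitted percent-inhibition dose-response curve censored at the highest concentration, after per-plate normalisation to vehicle and a positive kill control, Z'-factor checks, and removal of rows with zero drug sensitivity score.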

SK-BR-3 [30] = tested on: SK-BR-3; remark: listed apart in the source
Procedure, shortened: as §3

BT-549 [31] = tested on: BT-549; remark: listed apart in the source
Procedure, shortened: as §3

MDA-MB-436 [32] = tested on: MDA-MB-436; remark: listed apart in the source
Procedure, shortened: as §3

MDA-MB-231 [33] = tested on: MDA-MB-231; remark: listed apart in the source
Procedure, shortened: as §3

MDA-MB-468 [34] = tested on: MDA-MB-468; remark: listed apart in the source
Procedure, shortened: as §3

BT-474 [35] = tested on: BT-474; remark: listed apart in the source
Procedure, shortened: as §3

Hs578T [36] = tested on: Hs578T; remark: listed apart in the source
Procedure, shortened: as §3

HCC1143 [37] = tested on: HCC1143; remark: listed apart in the source
Procedure, shortened: as §3

MFM-223 [38] = tested on: MFM-223; remark: listed apart in the source
Procedure, shortened: as §3

CAL-120 [39] = tested on: CAL-120; remark: listed apart in the source
Procedure, shortened: as §3

CAL-148 [40] = tested on: CAL-148
Procedure, shortened: as §2

MDA-MB-453 [41] = tested on: MDA-MB-453; remark: listed apart in the source
Procedure, shortened: as §3

CAL-148 [42] = tested on: CAL-148; remark: listed apart in the source
Procedure, shortened: as §3

HDQ-P1 [43] = tested on: HDQ-P1; remark: listed apart in the source
Procedure, shortened: as §3

CAL-85-1 [44] = tested on: CAL-85-1; remark: listed apart in the source
Procedure, shortened: as §3

DU-4475 [45] = tested on: DU-4475; remark: listed apart in the source
Procedure, shortened: as §3

CAL-51 [46] = tested on: CAL-51; remark: listed apart in the source
Procedure, shortened: as §3

CC1(C)CCC(CN2CCN(c3ccc(C(=O)NS(=O)(=O)c4ccc(NCC5CCOCC5)c([N+](=O)[O-])c4)c(Oc4cnc5[nH]ccc5c4)c3)CC2)=C(c2ccc(Cl)cc2)C1 [ABT-199]
EC50, CellTox Green (MDA-MB-468 [1]): 3.5 nM | EC50, CellTox Green (CAL-120 [2]): > 10000 nM | EC50, CellTiter-Glo (CAL-51 [3]): 702 nM

Cn1cc(C2=Nc3cc(NC(=O)C(N)C4CCCCC4)cc4c3C2=CNNC4=O)cn1 (stereo not drawn)
EC50, CellTox Green (MDA-MB-453 [4]): 7250 nM | EC50, CellTox Green (HDQ-P1 [5]): 1000 nM | EC50, CellTox Green (BT-549 [6]): 7370 nM | EC50, CellTox Green (MDA-MB-231 [7]): 255 nM | EC50, CellTox Green (CAL-85-1 [8]): 88.9 nM | EC50, CellTox Green (MDA-MB-468 [1]): 5280 nM | EC50, CellTox Green (CAL-51 [9]): 1130 nM | EC50, CellTox Green (Hs578T [10]): 9610 nM | EC50, CellTox Green (MFM-223 [11]): 3030 nM | EC50, CellTox Green (MCF-10A [12]): 89.5 nM | EC50, CellTiter-Glo (MDA-MB-453 [13]): 109 nM | EC50, CellTiter-Glo (HCC1937 [14]): 3870 nM | EC50, CellTiter-Glo (SK-BR-3 [15]): 193 nM | EC50, CellTiter-Glo (BT-549 [16]): 397 nM | EC50, CellTiter-Glo (MDA-MB-436 [17]): 1430 nM | EC50, CellTiter-Glo (MDA-MB-231 [18]): 1410 nM | EC50, CellTiter-Glo (CAL-85-1 [19]): 293 nM | EC50, CellTiter-Glo (DU-4475 [20]): 9440 nM | EC50, CellTiter-Glo (HCC1599): 130 nM | EC50, CellTiter-Glo (CAL-51 [3]): 2380 nM | EC50, CellTiter-Glo (Hs578T [21]): 387 nM | EC50, CellTiter-Glo (HCC1143 [22]): 1730 nM | EC50, CellTiter-Glo (MFM-223 [23]): 109 nM | EC50, CellTiter-Glo (CAL-120 [24]): 5050 nM | EC50, CellTiter-Glo (MCF-10A [25]): 2700 nM

CC(=O)O[C@@]12CO[C@@H]1C[C@H](O)[C@@]1(C)C(=O)[C@H](O)C3=C(C)[C@@H](OC(=O)[C@H](O)[C@@H](NC(=O)OC(C)(C)C)c4ccccc4)C[C@@](O)([C@@H](OC(=O)c4ccccc4)[C@H]21)C3(C)C [Docetaxel]
EC50, CellTox Green (HCC1937 [26]): 946 nM | EC50, CellTox Green (HDQ-P1 [5]): 123 nM | EC50, CellTox Green (BT-549 [6]): 57.8 nM | EC50, CellTox Green (MDA-MB-231 [7]): 1.94 nM | EC50, CellTox Green (CAL-85-1 [8]): 1.87 nM | EC50, CellTox Green (CAL-51 [9]): 1.63 nM | EC50, CellTox Green (BT-474 [27]): 5.12 nM | EC50, CellTox Green (Hs578T [10]): 4.24 nM | EC50, CellTox Green (HCC1143 [28]): 108 nM | EC50, CellTox Green (MFM-223 [11]): 12.2 nM | EC50, CellTox Green (MCF-10A [12]): 3.14 nM | EC50, CellTiter-Blue viability (HCC1937 [29]): 1.02 nM | EC50, CellTiter-Blue viability (SK-BR-3 [30]): 1.9 nM | EC50, CellTiter-Blue viability (BT-549 [31]): 1.03 nM | EC50, CellTiter-Blue viability (MDA-MB-436 [32]): 2.53 nM | EC50, CellTiter-Blue viability (MDA-MB-231 [33]): 2.39 nM | EC50, CellTiter-Blue viability (MDA-MB-468 [34]): 0.808 nM | EC50, CellTiter-Blue viability (BT-474 [35]): 6.71 nM | EC50, CellTiter-Blue viability (Hs578T [36]): 1.36 nM | EC50, CellTiter-Blue viability (HCC1143 [37]): 1.71 nM | EC50, CellTiter-Blue viability (MFM-223 [38]): 2.57 nM | EC50, CellTiter-Blue viability (CAL-120 [39]): 2.27 nM | EC50, CellTiter-Glo (MDA-MB-453 [13]): 7.15 nM | EC50, CellTiter-Glo (HCC1937 [14]): 0.69 nM | EC50, CellTiter-Glo (SK-BR-3 [15]): 1.37 nM | EC50, CellTiter-Glo (CAL-148 [40]): 1.52 nM | EC50, CellTiter-Glo (BT-549 [16]): 1.03 nM | EC50, CellTiter-Glo (MDA-MB-436 [17]): 2.14 nM | EC50, CellTiter-Glo (MDA-MB-231 [18]): 5.5 nM | EC50, CellTiter-Glo (CAL-85-1 [19]): 1.46 nM | EC50, CellTiter-Glo (DU-4475 [20]): 8.31 nM | EC50, CellTiter-Glo (HCC1599): 12.2 nM | EC50, CellTiter-Glo (CAL-51 [3]): 5.86 nM | EC50, CellTiter-Glo (Hs578T [21]): 2.47 nM | EC50, CellTiter-Glo (HCC1143 [22]): 1.17 nM | EC50, CellTiter-Glo (MFM-223 [23]): 3.29 nM | EC50, CellTiter-Glo (CAL-120 [24]): 3.3 nM | EC50, CellTiter-Glo (MCF-10A [25]): 1.04 nM | EC50, CellTiter-Blue viability (MDA-MB-453 [41]): 2.02 nM | EC50, CellTiter-Blue viability (CAL-148 [42]): 1.85 nM | EC50, CellTiter-Blue viability (HDQ-P1 [43]): 1.39 nM | EC50, CellTiter-Blue viability (CAL-85-1 [44]): 2.27 nM | EC50, CellTiter-Blue viability (DU-4475 [45]): 2.52 nM | EC50, CellTiter-Blue viability (CAL-51 [46]): 4.62 nM

CC(=O)c1c(C)c2cnc(Nc3ccc(N4CCNCC4)cn3)nc2n(C2CCCC2)c1=O
EC50, CellTiter-Blue viability (MDA-MB-231 [33]): 460 nM | EC50, CellTiter-Blue viability (Hs578T [36]): 7700 nM | EC50, CellTiter-Blue viability (HCC1143 [37]): 9920 nM | EC50, CellTiter-Blue viability (CAL-120 [39]): 12.8 nM | EC50, CellTiter-Blue viability (MDA-MB-453 [41]): 102 nM | EC50, CellTiter-Blue viability (CAL-51 [46]): 1170 nM
